In ChEMBL document CHEMBL3045548, “Synthesis of some novel 1,2,4-triazole and 1,3,4-oxadiazole derivatives of biological interest” (2013):
≈ marks a conversion by molar mass, not a printed value.

What was measured:
Format in all cases: functional
[1] = test system: Pseudomonas aeruginosa; test: Antimicrobial activity against Pseudomonas aeruginosa NICM 2036 assessed as growth inhibition by two-fold serial dilution method
[2] = test system: Escherichia coli; test: Antimicrobial activity against Escherichia coli NICM 2138 assessed as growth inhibition by two-fold serial dilution method
[3] = test system: Staphylococcus epidermidis; test: Antimicrobial activity against Staphylococcus epidermidis NICM 2493 assessed as growth inhibition by two fold serial dilution method
[4] = test system: Staphylococcus aureus; test: Antimicrobial activity against Staphylococcus aureus NICM 2079 assessed as growth inhibition by two fold serial dilution method
[5] = test system: Bacillus subtilis; test: Antimicrobial activity against Bacillus subtilis NICM 2063 assessed as growth inhibition by two fold serial dilution method
[6] = test system: Saccharomyces cerevisiae; test: Antimicrobial activity against Saccharomyces cerevisiae NICM 3312 assessed as growth inhibition by two fold serial dilution method
[7] = test system: Candida albicans; test: Antimicrobial activity against Candida albicans NICM 3100 assessed as growth inhibition by two-fold serial dilution method
[8] = test system: Aspergillus flavus; test: Antimicrobial activity against Aspergillus flavus NICM 524 assessed as growth inhibition by two fold serial dilution method
[9] = test system: Aspergillus niger; test: Antimicrobial activity against Aspergillus niger NICM 572 assessed as growth inhibition by two fold serial dilution method
[10] = test system: Rhizopus arrhizus; test: Antimicrobial activity against Rhizopus oryzae NICM 997 assessed as growth inhibition by two-fold serial dilution method

Row | SMILES | MIC [1] [µg/mL] | MIC [2] [µg/mL] | MIC [3] [µg/mL] | MIC [4] [µg/mL] | MIC [5] [µg/mL] | MIC [6] [µg/mL] | MIC [7] [µg/mL] | MIC [8] [µg/mL] | MIC [9] [µg/mL] | MIC [10] [µg/mL]
1 | Cc1nn(-c2ccc(-c3nnc(S)o3)cc2)c(=O)n1/N=C/c1cscn1 | 150 (≈ 389 µM) | 37.5 (≈ 97.3 µM) | 18.8 (≈ 48.6 µM) | 75 (≈ 195 µM) | 37.5 (≈ 97.3 µM) | 150 (≈ 389 µM) | 150 (≈ 389 µM) | 150 (≈ 389 µM) | 150 (≈ 389 µM) | 37.5 (≈ 97.3 µM)
2 | Cc1nn(-c2ccc(-c3nnc(S)o3)cc2)c(=O)n1/N=C/c1ccccc1Br | 150 (≈ 328 µM) | 150 (≈ 328 µM) | 75 (≈ 164 µM) | 75 (≈ 164 µM) | 75 (≈ 164 µM) | 150 (≈ 328 µM) | 150 (≈ 328 µM) | 75 (≈ 164 µM) | 150 (≈ 328 µM) | 37.5 (≈ 82 µM)
3 | Cc1nn(-c2ccc(-c3nnc(S)o3)cc2)c(=O)n1/N=C/c1cccc(F)c1 | 75 (≈ 189 µM) | 9.37 (≈ 23.6 µM) | 37.5 (≈ 94.6 µM) | 9.37 (≈ 23.6 µM) | 18.8 (≈ 47.3 µM) | 75 (≈ 189 µM) | 150 (≈ 378 µM) | 150 (≈ 378 µM) | 150 (≈ 378 µM) | 150 (≈ 378 µM)
4 | Cc1nn(-c2ccc(-c3nnc(S)o3)cc2)c(=O)n1/N=C/c1ccccc1F | 75 (≈ 189 µM) | 75 (≈ 189 µM) | 150 (≈ 378 µM) | 37.5 (≈ 94.6 µM) | 75 (≈ 189 µM) | 75 (≈ 189 µM) | 150 (≈ 378 µM) | 37.5 (≈ 94.6 µM) | 75 (≈ 189 µM) | 9.37 (≈ 23.6 µM)
5 | CCOC(=O)CSc1nnc(-c2ccc(-n3nc(C)n(N)c3=O)cc2)o1 | 75 (≈ 199 µM) | 37.5 (≈ 99.6 µM) | 75 (≈ 199 µM) | 18.8 (≈ 49.8 µM) | 37.5 (≈ 99.6 µM) | 150 (≈ 399 µM) | 150 (≈ 399 µM) | 150 (≈ 399 µM) | 150 (≈ 399 µM) | 150 (≈ 399 µM)
6 | CSc1nnc(-c2ccc(-n3nc(C)n(N)c3=O)cc2)o1 | 75 (≈ 246 µM) | 75 (≈ 246 µM) | 75 (≈ 246 µM) | 37.5 (≈ 123 µM) | 150 (≈ 493 µM) | 150 (≈ 493 µM) | 150 (≈ 493 µM) | 150 (≈ 493 µM) | 150 (≈ 493 µM) | 37.5 (≈ 123 µM)
7 | C[C@@H]1[C@H](O)[C@@H](C)/C=C/C=C/C=C/C=C/C=C/C=C/C=C/[C@H](O[C@@H]2O[C@H](C)[C@@H](O)[C@H](N)[C@@H]2O)C[C@@H]2O[C@](O)(C[C@@H](O)C[C@@H](O)[C@H](O)CC[C@@H](O)C[C@@H](O)CC(=O)O[C@H]1C)C[C@H](O)[C@H]2C(=O)O [AMPHOTERICIN B] | – | – | – | – | – | 6.25 (≈ 6.76 µM) | 6.25 (≈ 6.76 µM) | 6.25 (≈ 6.76 µM) | 1.56 (≈ 1.69 µM) | 1.56 (≈ 1.69 µM)
8 | CN[C@@H]1[C@H](O[C@H]2[C@H](O[C@H]3[C@H](O)[C@@H](O)[C@H](N=C(N)N)[C@@H](O)[C@@H]3N=C(N)N)O[C@@H](C)[C@]2(O)C=O)O[C@@H](CO)[C@H](O)[C@H]1O [STREPTOMYCIN] | 3.12 (≈ 5.37 µM) | 3.12 (≈ 5.37 µM) | 1.56 (≈ 2.69 µM) | 1.56 (≈ 2.68 µM) | 6.25 (≈ 10.7 µM) | – | – | – | – | –

More lines, now with the values ahead:

Row | MIC [1] [µg/mL] | MIC [2] [µg/mL] | MIC [3] [µg/mL] | MIC [4] [µg/mL] | MIC [5] [µg/mL] | MIC [6] [µg/mL] | MIC [7] [µg/mL] | MIC [8] [µg/mL] | MIC [9] [µg/mL] | MIC [10] [µg/mL] | SMILES
9 | 18.8 (≈ 61.6 µM) | 37.5 (≈ 123 µM) | 75 (≈ 246 µM) | 9.37 (≈ 30.8 µM) | 18.8 (≈ 61.6 µM) | 150 (≈ 493 µM) | 150 (≈ 493 µM) | 75 (≈ 246 µM) | 37.5 (≈ 123 µM) | 18.8 (≈ 61.6 µM) | Cc1nn(-c2ccc(-c3nnc(S)n3N)cc2)c(=O)n1N
10 | 37.5 (≈ 102 µM) | 150 (≈ 407 µM) | 75 (≈ 204 µM) | 37.5 (≈ 102 µM) | 150 (≈ 407 µM) | 150 (≈ 407 µM) | 150 (≈ 407 µM) | 150 (≈ 407 µM) | 150 (≈ 407 µM) | 150 (≈ 407 µM) | Cc1nn(-c2ccc(-c3nnc(S)o3)cc2)c(=O)n1/N=C/c1ccco1
11 | 75 (≈ 189 µM) | 37.5 (≈ 94.6 µM) | 150 (≈ 378 µM) | 150 (≈ 378 µM) | 75 (≈ 189 µM) | 150 (≈ 378 µM) | 150 (≈ 378 µM) | 75 (≈ 189 µM) | 75 (≈ 189 µM) | 75 (≈ 189 µM) | Cc1nn(-c2ccc(-c3nnc(S)o3)cc2)c(=O)n1/N=C/c1ccc(F)cc1
12 | 75 (≈ 181 µM) | 150 (≈ 362 µM) | 18.8 (≈ 45.2 µM) | 75 (≈ 181 µM) | 37.5 (≈ 90.5 µM) | 150 (≈ 362 µM) | 18.8 (≈ 45.2 µM) | 9.37 (≈ 22.6 µM) | 37.5 (≈ 90.5 µM) | 18.8 (≈ 45.2 µM) | Cc1nn(-c2ccc(-c3nnc(S)o3)cc2)c(=O)n1/N=C/c1cc(F)ccc1F
13 | 37.5 (≈ 129 µM) | 75 (≈ 258 µM) | 150 (≈ 517 µM) | 75 (≈ 258 µM) | 37.5 (≈ 129 µM) | 150 (≈ 517 µM) | 37.5 (≈ 129 µM) | 150 (≈ 517 µM) | 150 (≈ 517 µM) | 75 (≈ 258 µM) | Cc1nn(-c2ccc(-c3nnc(S)o3)cc2)c(=O)n1N
14 | 9.37 (≈ 28 µM) | 6.25 (≈ 18.7 µM) | 3.12 (≈ 9.35 µM) | 6.25 (≈ 18.7 µM) | 1.53 (≈ 4.56 µM) | – | – | – | – | – | CC1(C)S[C@@H]2[C@H](NC(=O)Cc3ccccc3)C(=O)N2[C@H]1C(=O)O [PENICILLIN G]
